In patent publication US20260070945A1, “MACROCYCLIC IMMUNOMODULATORS” (Bristol-Myers Squibb Company, priority 2022, published 2026):
Where a SMILES comes first, the peptide text is derived from it. Bridges are numbered along the chain shown (N, C = ends). [ ]: non-standard residue; d: D form. The star is where a group is joined. ξ: configuration not given here. Bip = N[C@@H](Cc1ccc(-c2ccccc2)cc1)C(=O)O; Phe(3-Me) = Cc1cccc(C[C@H](N)C(=O)O)c1; 4Pal = N[C@@H](Cc1ccncc1)C(=O)O; Cha = N[C@@H](CC1CCCCC1)C(=O)O; Cit = NC(=O)NCCC[C@H](N)C(=O)O; Carboxymethyl = O=C(O)C*; NMeA = CN[C@@H](C)C(=O)O; Orn = NCCC[C@H](N)C(=O)O; Aun = NCCCCCCCCCCC(=O)O; Dab = NCC[C@H](N)C(=O)O; Dap = NC[C@H](N)C(=O)O; AEEA = NCCOCCOCC(=O)O; ξV = CC(C)C(N)C(=O)O

Each compound was assayed against T1, PD-1/PD-L1 interaction (PE-labeled human PD-L1-Ig binding to Jurkat cell line over-expressing human PD-1) (Homo sapiens, UniProt Q15116) (assay: Jurkat-PD-1 Cell Binding High-Content Screening Assay (CBA)). Settings: Jurkat-hPD-1 cells, PE-labeled PD-L1-Ig 20 nM final; read-out: Jurkat HPD1 PDL1 IC50.
T1 construct: expressed in transfected cells; host or cells: Jurkat
T1 sequence (Q15116 25-288): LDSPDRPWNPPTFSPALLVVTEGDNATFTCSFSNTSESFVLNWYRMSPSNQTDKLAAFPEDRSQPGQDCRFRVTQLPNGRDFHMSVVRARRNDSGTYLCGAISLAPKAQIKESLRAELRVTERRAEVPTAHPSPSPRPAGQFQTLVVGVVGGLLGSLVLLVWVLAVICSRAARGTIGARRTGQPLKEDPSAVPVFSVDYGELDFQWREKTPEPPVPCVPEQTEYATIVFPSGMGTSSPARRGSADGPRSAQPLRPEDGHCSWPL
How it was run: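 In this imaging assay, cells in 10% FCS medium see compound for 2 h at 37 °C and then labeled ligand at 20 nM final for 1 h. Paraformaldehyde fixation, Hoechst 33342 staining and dPBS washes precede image capture.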
`CC(C)C[C@H]1NC(=O)[C@H](C)N(C)C(=O)[C@H](CCCNC(N)=O)NC(=O)[C@H](Cc2ccc(-c3ccccc3)cc2)NC(=O)[C@H](Cc2ccc(O)cc2)NC(=O)[C@H](Cc2c[nH]c3ccccc23)NC(=O)[C@H](CC(=O)O)NC(=O)[C@H](Cc2ccc(OCC(=O)O)cc2)NC(=O)[C@H](CCCNC(=N)N)NC(=O)CSC[C@@H](C(=O)N[C@@H](CCN)C(=O)NCCCCCCCCCCC(=O)O)NC(=O)[C@H]([C@@H](C)O)NC(=O)[C@H](C(C)C)NC(=O)[C@H](CC2CCCCC2)NC(=O)[C@H](CCN)NC1=O` [Example 1354] ({CH2CO}-RY(Carboxymethyl)DWY[Bip][Cit][NMeA][dL][Dab][Cha]VTC[Dab][Aun]-OH; thioether N-14) showed an IC50 of 0.0422 µM.
For `Cc1cccc(C[C@@H]2NC(=O)[C@H](CC(=O)O)NC(=O)[C@H](Cc3ccc(OCC(=O)O)cc3)NC(=O)[C@H](CCCNC(=N)N)NC(=O)CSC[C@@H](C(=O)N[C@@H](CCN)C(=O)NCCCCCCCCCCC(=O)O)NC(=O)[C@H]([C@@H](C)O)NC(=O)[C@H](C(C)C)NC(=O)[C@H](CC3CCCCC3)NC(=O)[C@H](CCN)NC(=O)[C@@H](CC(C)C)NC(=O)[C@H](C)N(C)C(=O)[C@H](CCCNC(N)=O)NC(=O)[C@H](Cc3ccc(-c4ccccc4)cc3)NC(=O)[C@H](Cc3ccc(O)cc3)NC2=O)c1` [Example 1355] ({CH2CO}-RY(Carboxymethyl)D[Phe(3-Me)]Y[Bip][Cit][NMeA][dL][Dab][Cha]VTC[Dab][Aun]-OH; thioether N-14), the IC50 was 0.0051 µM.
`Cc1cccc(C[C@@H]2NC(=O)[C@H](CC(=O)O)NC(=O)[C@H](Cc3ccc(OCC(=O)O)cc3)NC(=O)[C@H](CN)NC(=O)CSC[C@@H](C(=O)N[C@@H](CCN)C(=O)NCCCCCCCCCCC(=O)O)NC(=O)[C@H]([C@@H](C)O)NC(=O)[C@H](C(C)C)NC(=O)[C@H](CC3CCCCC3)NC(=O)[C@H](CCN)NC(=O)[C@@H](CC(C)C)NC(=O)[C@H](C)N(C)C(=O)[C@H](CCCNC(N)=O)NC(=O)[C@H](Cc3ccc(-c4ccccc4)cc3)NC(=O)C(C(C)C)NC2=O)c1` (stereo partly drawn) [Example 1356] ({CH2CO}-[Dap]Y(Carboxymethyl)D[Phe(3-Me)][ξV][Bip][Cit][NMeA][dL][Dab][Cha]VTC[Dab][Aun]-OH; thioether N-14) showed an IC50 of 0.0146 µM.
Work on `Cc1cccc(C[C@@H]2NC(=O)[C@H](CC(=O)O)NC(=O)[C@H](Cc3ccncc3)NC(=O)[C@H](Cc3ccc(OCC(=O)O)cc3)NC(=O)CSC[C@@H](C(=O)N[C@@H](CCN)C(=O)NCCOCCOCC(=O)NCCCCCCCCCCC(=O)O)NC(=O)[C@H]([C@@H](C)O)NC(=O)[C@H](C(C)C)NC(=O)[C@H](CC3CCCCC3)NC(=O)[C@H](CC(N)=O)NC(=O)[C@@H](CC(C)C)NC(=O)[C@H](C)N(C)C(=O)[C@H](Cc3ccc(OCC(=O)O)cc3)NC(=O)[C@H](Cc3ccc(-c4ccccc4)cc3)NC(=O)[C@H](Cc3ccc(OCC(=O)O)cc3)NC2=O)c1` [Example 1357] ({CH2CO}-Y(Carboxymethyl)[4Pal]D[Phe(3-Me)]Y(Carboxymethyl)[Bip]Y(Carboxymethyl)[NMeA][dL]N[Cha]VTC[Dab][AEEA][Aun]-OH; thioether N-14) yielded an IC50 of 0.0205 µM.
`Cc1cccc(C[C@@H]2NC(=O)[C@H](CC(=O)O)NC(=O)[C@H](Cc3ccncc3)NC(=O)[C@H](Cc3ccc(OCC(=O)O)cc3)NC(=O)CSC[C@@H](C(=O)N[C@@H](CCCN)C(=O)NCCOCCOCC(=O)NCCCCCCCCCCC(=O)O)NC(=O)[C@H]([C@@H](C)O)NC(=O)[C@H](C(C)C)NC(=O)[C@H](CC3CCCCC3)NC(=O)[C@H](CC(N)=O)NC(=O)[C@@H](CC(C)C)NC(=O)[C@H](C)N(C)C(=O)[C@H](Cc3ccc(OCC(=O)O)cc3)NC(=O)[C@H](Cc3ccc(-c4ccccc4)cc3)NC(=O)[C@H](Cc3ccc(OCC(=O)O)cc3)NC2=O)c1` [Example 1358] ({CH2CO}-Y(Carboxymethyl)[4Pal]D[Phe(3-Me)]Y(Carboxymethyl)[Bip]Y(Carboxymethyl)[NMeA][dL]N[Cha]VTC[Orn][AEEA][Aun]-OH; thioether N-14) showed an IC50 of 0.0456 µM.
In the case of `Cc1cccc(C[C@@H]2NC(=O)[C@H](CC(=O)O)NC(=O)[C@H](Cc3ccncc3)NC(=O)[C@H](Cc3ccc(OCC(=O)O)cc3)NC(=O)CSC[C@@H](C(=O)N[C@@H](CCN)C(=O)NCCOCCOCC(=O)NCCCCCCCCCCC(=O)O)NC(=O)[C@H](CCCN)NC(=O)[C@H](C(C)C)NC(=O)[C@H](CC3CCCCC3)NC(=O)[C@H](CC(N)=O)NC(=O)[C@@H](CC(C)C)NC(=O)[C@H](C)N(C)C(=O)[C@H](Cc3ccc(OCC(=O)O)cc3)NC(=O)[C@H](Cc3ccc(-c4ccccc4)cc3)NC(=O)[C@H](Cc3ccc(OCC(=O)O)cc3)NC2=O)c1` [Example 1359] ({CH2CO}-Y(Carboxymethyl)[4Pal]D[Phe(3-Me)]Y(Carboxymethyl)[Bip]Y(Carboxymethyl)[NMeA][dL]N[Cha]V[Orn]C[Dab][AEEA][Aun]-OH; thioether N-14), the IC50 is reported as 0.0232 µM.
`Cc1cccc(C[C@@H]2NC(=O)[C@H](CC(=O)O)NC(=O)[C@H](Cc3ccncc3)NC(=O)[C@H](Cc3ccc(OCC(=O)O)cc3)NC(=O)CSC[C@@H](C(=O)N[C@@H](CCN)C(=O)NCCOCCOCC(=O)NCCCCCCCCCCC(=O)O)NC(=O)[C@H]([C@@H](C)O)NC(=O)[C@H](C(C)C)NC(=O)[C@H](CC3CCCCC3)NC(=O)[C@H](CCN)NC(=O)[C@@H](CC(C)C)NC(=O)[C@H](C)N(C)C(=O)[C@H](Cc3ccc(OCC(=O)O)cc3)NC(=O)[C@H](Cc3ccc(-c4ccccc4)cc3)NC(=O)[C@H](Cc3ccc(OCC(=O)O)cc3)NC2=O)c1` [Example 1360] ({CH2CO}-Y(Carboxymethyl)[4Pal]D[Phe(3-Me)]Y(Carboxymethyl)[Bip]Y(Carboxymethyl)[NMeA][dL][Dab][Cha]VTC[Dab][AEEA][Aun]-OH; thioether N-14) was tested, and the IC50 was 0.0086 µM.
Work on `Cc1cccc(C[C@@H]2NC(=O)[C@H](CC(=O)O)NC(=O)[C@H](Cc3ccncc3)NC(=O)[C@H](Cc3ccc(OCC(=O)O)cc3)NC(=O)CSC[C@@H](C(=O)N[C@@H](CCCN)C(=O)NCCOCCOCC(=O)NCCCCCCCCCCC(=O)O)NC(=O)[C@H]([C@@H](C)O)NC(=O)[C@H](C(C)C)NC(=O)[C@H](CC3CCCCC3)NC(=O)[C@H](CCN)NC(=O)[C@@H](CC(C)C)NC(=O)[C@H](C)N(C)C(=O)[C@H](Cc3ccc(OCC(=O)O)cc3)NC(=O)[C@H](Cc3ccc(-c4ccccc4)cc3)NC(=O)[C@H](Cc3ccc(OCC(=O)O)cc3)NC2=O)c1` [Example 1361] ({CH2CO}-Y(Carboxymethyl)[4Pal]D[Phe(3-Me)]Y(Carboxymethyl)[Bip]Y(Carboxymethyl)[NMeA][dL][Dab][Cha]VTC[Orn][AEEA][Aun]-OH; thioether N-14) yielded an IC50 of 0.0161 µM.
For `Cc1cccc(C[C@@H]2NC(=O)[C@H](CC(=O)O)NC(=O)[C@H](Cc3ccc(OCC(=O)O)cc3)NC(=O)[C@H]([C@@H](C)O)NC(=O)CSC[C@@H](C(=O)N[C@@H](CCN)C(=O)NCCOCCOCC(=O)NCCCCCCCCCCC(=O)O)NC(=O)[C@H]([C@@H](C)O)NC(=O)[C@H](C(C)C)NC(=O)[C@H](CC3CCCCC3)NC(=O)[C@H](CC(N)=O)NC(=O)[C@@H](CC(C)C)NC(=O)[C@H](C)N(C)C(=O)[C@H](Cc3ccc(OCC(=O)O)cc3)NC(=O)[C@H](Cc3ccc(-c4ccccc4)cc3)NC(=O)[C@H](Cc3ccc(OCC(=O)O)cc3)NC2=O)c1` [Example 1362] ({CH2CO}-TY(Carboxymethyl)D[Phe(3-Me)]Y(Carboxymethyl)[Bip]Y(Carboxymethyl)[NMeA][dL]N[Cha]VTC[Dab][AEEA][Aun]-OH; thioether N-14), the IC50 was 0.0251 µM.
`Cc1cccc(C[C@@H]2NC(=O)[C@H](CC(=O)O)NC(=O)[C@H](Cc3ccc(OCC(=O)O)cc3)NC(=O)[C@H]([C@@H](C)O)NC(=O)CSC[C@@H](C(=O)N[C@@H](CCN)C(=O)NCCOCCOCC(=O)NCCCCCCCCCCC(=O)O)NC(=O)[C@H](CCCN)NC(=O)[C@H](C(C)C)NC(=O)[C@H](CC3CCCCC3)NC(=O)[C@H](CC(N)=O)NC(=O)[C@@H](CC(C)C)NC(=O)[C@H](C)N(C)C(=O)[C@H](Cc3ccc(OCC(=O)O)cc3)NC(=O)[C@H](Cc3ccc(-c4ccccc4)cc3)NC(=O)[C@H](Cc3ccc(OCC(=O)O)cc3)NC2=O)c1` [Example 1363] ({CH2CO}-TY(Carboxymethyl)D[Phe(3-Me)]Y(Carboxymethyl)[Bip]Y(Carboxymethyl)[NMeA][dL]N[Cha]V[Orn]C[Dab][AEEA][Aun]-OH; thioether N-14) gave an IC50 of 0.0253 µM.
`Cc1cccc(C[C@@H]2NC(=O)[C@H](CC(=O)O)NC(=O)[C@H](Cc3ccc(OCC(=O)O)cc3)NC(=O)[C@H]([C@@H](C)O)NC(=O)CSC[C@@H](C(=O)N[C@@H](CCN)C(=O)NCCOCCOCC(=O)NCCCCCCCCCCC(=O)O)NC(=O)[C@H](CCC(=O)O)NC(=O)[C@H](C(C)C)NC(=O)[C@H](CC3CCCCC3)NC(=O)[C@H](CC(N)=O)NC(=O)[C@@H](CC(C)C)NC(=O)[C@H](C)N(C)C(=O)[C@H](Cc3ccc(OCC(=O)O)cc3)NC(=O)[C@H](Cc3ccc(-c4ccccc4)cc3)NC(=O)[C@H](Cc3ccc(OCC(=O)O)cc3)NC2=O)c1` [Example 1364] ({CH2CO}-TY(Carboxymethyl)D[Phe(3-Me)]Y(Carboxymethyl)[Bip]Y(Carboxymethyl)[NMeA][dL]N[Cha]VEC[Dab][AEEA][Aun]-OH; thioether N-14) showed an IC50 of 0.0495 µM.
Compound `Cc1cccc(C[C@@H]2NC(=O)[C@H](CC(=O)O)NC(=O)[C@H](Cc3ccc(OCC(=O)O)cc3)NC(=O)[C@H]([C@@H](C)O)NC(=O)CSC[C@@H](C(=O)N[C@@H](CCCN)C(=O)NCCOCCOCC(=O)NCCCCCCCCCCC(=O)O)NC(=O)[C@H]([C@@H](C)O)NC(=O)[C@H](C(C)C)NC(=O)[C@H](CC3CCCCC3)NC(=O)[C@H](CC(N)=O)NC(=O)[C@@H](CC(C)C)NC(=O)[C@H](C)N(C)C(=O)[C@H](Cc3ccc(OCC(=O)O)cc3)NC(=O)[C@H](Cc3ccc(-c4ccccc4)cc3)NC(=O)[C@H](Cc3ccc(OCC(=O)O)cc3)NC2=O)c1` [Example 1365] ({CH2CO}-TY(Carboxymethyl)D[Phe(3-Me)]Y(Carboxymethyl)[Bip]Y(Carboxymethyl)[NMeA][dL]N[Cha]VTC[Orn][AEEA][Aun]-OH; thioether N-14) has an IC50 of 0.0597 µM.
